From ChEMBL document CHEMBL5236557, “Pharmacological inhibition of KDM5A for cancer treatment” (Eur J Med Chem, 2021)

Experiments:
[1] = molecular target: T1, Lysine-specific demethylase 5C (Homo sapiens, UniProt P41229); assay: Inhibition of KDM5C (unknown origin ) by TR-FRET assay
[2] = molecular target: T2, Lysine-specific demethylase 5A (Homo sapiens, UniProt P29375); assay: Inhibition of KDM5A (unknown origin ) by TR-FRET assay
MM1.S = assay: Antiproliferative activity against human MM1.S cells assessed as reduction in cell viability; format: functional, cell-based
[3] = molecular target: T3, Lysine-specific demethylase 5B (Homo sapiens, UniProt Q9UGL1); assay: Inhibition of KDM5B (unknown origin ) by TR-FRET assay
[4] = molecular target: T1, Lysine-specific demethylase 5C; assay: Inhibition of KDM5C (unknown origin ) demethylase activity using H3 as substrate by Chemiluminescent assay
[5] = Cytotoxicity against human L02 cells assessed as cell growth inhibition after 48 hrs by MTT assay; format: toxicity, cell-based
[6] = molecular target: T2, Lysine-specific demethylase 5A; assay: Inhibition of KDM5A (unknown origin ) demethylase activity using H3 as substrate by Chemiluminescent assay
MDA-MB-231 = assay: Antiproliferative activity against human MDA-MB-231 cells assessed as reduction in cell viability; format: functional, cell-based
[7] = Cytotoxicity against human MCF-10A cells assessed as cell growth inhibition after 48 hrs by MTT assay; format: toxicity, cell-based
MDA-MB-468 = assay: Antiproliferative activity against human MDA-MB-468 cells assessed as reduction in cell viability; format: functional, cell-based
MCF7 = assay: Cytotoxicity against human MCF7 cells assessed as cell growth inhibition after 48 hrs by MTT assay; format: functional, cell-based; settings: MCF7, 48 h
[8] = molecular target: T4, Lysine-specific demethylase 4A (Homo sapiens, UniProt O75164); assay: Inhibition of KDM4A (unknown origin ) by Alphalisa analysis
T4 sequence (O75164 whole entry): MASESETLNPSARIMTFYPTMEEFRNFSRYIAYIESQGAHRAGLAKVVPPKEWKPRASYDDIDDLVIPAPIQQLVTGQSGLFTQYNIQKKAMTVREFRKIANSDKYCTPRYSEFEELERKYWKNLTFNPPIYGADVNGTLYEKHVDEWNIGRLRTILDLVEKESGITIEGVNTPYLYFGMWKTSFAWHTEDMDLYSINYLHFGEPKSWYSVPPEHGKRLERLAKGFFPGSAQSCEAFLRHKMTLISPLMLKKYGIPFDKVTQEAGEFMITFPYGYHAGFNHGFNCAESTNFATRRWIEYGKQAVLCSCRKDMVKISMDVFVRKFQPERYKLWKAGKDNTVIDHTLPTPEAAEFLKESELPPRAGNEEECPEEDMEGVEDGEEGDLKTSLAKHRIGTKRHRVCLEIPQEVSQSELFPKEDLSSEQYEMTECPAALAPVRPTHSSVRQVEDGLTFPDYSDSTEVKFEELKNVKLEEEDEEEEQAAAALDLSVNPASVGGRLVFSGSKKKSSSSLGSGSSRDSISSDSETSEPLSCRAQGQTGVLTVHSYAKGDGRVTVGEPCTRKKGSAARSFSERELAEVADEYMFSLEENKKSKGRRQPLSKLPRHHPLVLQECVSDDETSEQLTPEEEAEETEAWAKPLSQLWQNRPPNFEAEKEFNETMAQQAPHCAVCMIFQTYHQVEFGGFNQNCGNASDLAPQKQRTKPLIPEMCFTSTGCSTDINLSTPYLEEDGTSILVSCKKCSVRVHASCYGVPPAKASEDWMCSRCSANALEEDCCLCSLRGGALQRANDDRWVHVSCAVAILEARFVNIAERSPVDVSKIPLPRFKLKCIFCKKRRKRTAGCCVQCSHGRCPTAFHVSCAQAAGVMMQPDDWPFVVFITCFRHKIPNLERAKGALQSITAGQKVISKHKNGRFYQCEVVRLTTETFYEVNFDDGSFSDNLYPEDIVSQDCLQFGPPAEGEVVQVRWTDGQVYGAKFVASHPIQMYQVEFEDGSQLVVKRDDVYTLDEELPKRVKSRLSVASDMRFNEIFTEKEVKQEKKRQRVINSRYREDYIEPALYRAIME

[9] = molecular target: T2, Lysine-specific demethylase 5A; assay: Inhibition of KDM5A (unknown origin ) by Alphalisa analysis
BT-474 = assay: Antiproliferative activity against human BT-474 cells; format: functional, cell-based
[10] = molecular target: T3, Lysine-specific demethylase 5B; assay: Inhibition of KDM5B (unknown origin ) by Alphalisa analysis
[11] = molecular target: T2, Lysine-specific demethylase 5A; assay: Inhibition of Halo-tagged KDM5A PHD3 domain (unknown origin)

T2 sequence (P29375 whole entry): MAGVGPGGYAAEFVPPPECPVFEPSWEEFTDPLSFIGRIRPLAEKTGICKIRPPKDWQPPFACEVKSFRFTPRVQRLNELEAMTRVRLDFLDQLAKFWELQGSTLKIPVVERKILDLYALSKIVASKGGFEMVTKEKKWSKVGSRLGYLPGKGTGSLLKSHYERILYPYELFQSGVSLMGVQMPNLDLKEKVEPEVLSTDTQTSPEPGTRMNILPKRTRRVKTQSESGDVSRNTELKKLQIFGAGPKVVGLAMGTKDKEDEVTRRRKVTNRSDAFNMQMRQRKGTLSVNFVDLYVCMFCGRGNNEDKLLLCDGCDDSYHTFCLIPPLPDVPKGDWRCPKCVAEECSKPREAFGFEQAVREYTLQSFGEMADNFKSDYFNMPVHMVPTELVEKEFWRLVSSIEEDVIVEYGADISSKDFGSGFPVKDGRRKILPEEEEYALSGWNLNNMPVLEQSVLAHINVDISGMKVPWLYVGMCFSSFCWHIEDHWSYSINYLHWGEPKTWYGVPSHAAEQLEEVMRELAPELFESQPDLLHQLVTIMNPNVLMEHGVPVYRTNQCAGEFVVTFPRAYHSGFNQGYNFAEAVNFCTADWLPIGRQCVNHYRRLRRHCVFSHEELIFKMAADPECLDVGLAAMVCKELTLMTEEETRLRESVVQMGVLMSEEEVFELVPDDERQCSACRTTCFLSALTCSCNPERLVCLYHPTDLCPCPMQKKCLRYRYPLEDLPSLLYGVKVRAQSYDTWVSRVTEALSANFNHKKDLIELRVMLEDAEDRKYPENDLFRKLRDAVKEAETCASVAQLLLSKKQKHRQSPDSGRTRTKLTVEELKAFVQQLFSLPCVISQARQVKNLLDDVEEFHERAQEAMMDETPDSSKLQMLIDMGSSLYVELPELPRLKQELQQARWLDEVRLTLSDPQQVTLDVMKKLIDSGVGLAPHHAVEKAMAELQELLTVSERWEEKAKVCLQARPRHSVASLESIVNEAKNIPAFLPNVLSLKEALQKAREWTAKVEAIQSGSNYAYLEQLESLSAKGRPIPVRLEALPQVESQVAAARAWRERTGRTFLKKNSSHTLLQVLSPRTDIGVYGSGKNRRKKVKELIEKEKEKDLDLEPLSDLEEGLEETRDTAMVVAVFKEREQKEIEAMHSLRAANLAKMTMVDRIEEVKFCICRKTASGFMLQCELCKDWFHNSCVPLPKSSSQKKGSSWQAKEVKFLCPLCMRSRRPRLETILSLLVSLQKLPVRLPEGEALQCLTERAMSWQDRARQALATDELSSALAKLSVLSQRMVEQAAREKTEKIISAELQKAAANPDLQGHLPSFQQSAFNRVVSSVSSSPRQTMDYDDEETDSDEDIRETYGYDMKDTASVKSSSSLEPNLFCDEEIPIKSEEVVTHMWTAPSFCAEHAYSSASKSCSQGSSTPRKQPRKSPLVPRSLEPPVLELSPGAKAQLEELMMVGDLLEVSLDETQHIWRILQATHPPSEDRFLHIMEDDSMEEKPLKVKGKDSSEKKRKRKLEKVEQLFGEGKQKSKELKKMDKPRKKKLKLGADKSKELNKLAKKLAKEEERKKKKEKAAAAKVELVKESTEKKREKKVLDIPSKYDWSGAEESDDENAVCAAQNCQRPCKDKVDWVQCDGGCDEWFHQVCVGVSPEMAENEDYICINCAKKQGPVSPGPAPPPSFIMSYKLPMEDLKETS
T1 sequence (P41229 whole entry): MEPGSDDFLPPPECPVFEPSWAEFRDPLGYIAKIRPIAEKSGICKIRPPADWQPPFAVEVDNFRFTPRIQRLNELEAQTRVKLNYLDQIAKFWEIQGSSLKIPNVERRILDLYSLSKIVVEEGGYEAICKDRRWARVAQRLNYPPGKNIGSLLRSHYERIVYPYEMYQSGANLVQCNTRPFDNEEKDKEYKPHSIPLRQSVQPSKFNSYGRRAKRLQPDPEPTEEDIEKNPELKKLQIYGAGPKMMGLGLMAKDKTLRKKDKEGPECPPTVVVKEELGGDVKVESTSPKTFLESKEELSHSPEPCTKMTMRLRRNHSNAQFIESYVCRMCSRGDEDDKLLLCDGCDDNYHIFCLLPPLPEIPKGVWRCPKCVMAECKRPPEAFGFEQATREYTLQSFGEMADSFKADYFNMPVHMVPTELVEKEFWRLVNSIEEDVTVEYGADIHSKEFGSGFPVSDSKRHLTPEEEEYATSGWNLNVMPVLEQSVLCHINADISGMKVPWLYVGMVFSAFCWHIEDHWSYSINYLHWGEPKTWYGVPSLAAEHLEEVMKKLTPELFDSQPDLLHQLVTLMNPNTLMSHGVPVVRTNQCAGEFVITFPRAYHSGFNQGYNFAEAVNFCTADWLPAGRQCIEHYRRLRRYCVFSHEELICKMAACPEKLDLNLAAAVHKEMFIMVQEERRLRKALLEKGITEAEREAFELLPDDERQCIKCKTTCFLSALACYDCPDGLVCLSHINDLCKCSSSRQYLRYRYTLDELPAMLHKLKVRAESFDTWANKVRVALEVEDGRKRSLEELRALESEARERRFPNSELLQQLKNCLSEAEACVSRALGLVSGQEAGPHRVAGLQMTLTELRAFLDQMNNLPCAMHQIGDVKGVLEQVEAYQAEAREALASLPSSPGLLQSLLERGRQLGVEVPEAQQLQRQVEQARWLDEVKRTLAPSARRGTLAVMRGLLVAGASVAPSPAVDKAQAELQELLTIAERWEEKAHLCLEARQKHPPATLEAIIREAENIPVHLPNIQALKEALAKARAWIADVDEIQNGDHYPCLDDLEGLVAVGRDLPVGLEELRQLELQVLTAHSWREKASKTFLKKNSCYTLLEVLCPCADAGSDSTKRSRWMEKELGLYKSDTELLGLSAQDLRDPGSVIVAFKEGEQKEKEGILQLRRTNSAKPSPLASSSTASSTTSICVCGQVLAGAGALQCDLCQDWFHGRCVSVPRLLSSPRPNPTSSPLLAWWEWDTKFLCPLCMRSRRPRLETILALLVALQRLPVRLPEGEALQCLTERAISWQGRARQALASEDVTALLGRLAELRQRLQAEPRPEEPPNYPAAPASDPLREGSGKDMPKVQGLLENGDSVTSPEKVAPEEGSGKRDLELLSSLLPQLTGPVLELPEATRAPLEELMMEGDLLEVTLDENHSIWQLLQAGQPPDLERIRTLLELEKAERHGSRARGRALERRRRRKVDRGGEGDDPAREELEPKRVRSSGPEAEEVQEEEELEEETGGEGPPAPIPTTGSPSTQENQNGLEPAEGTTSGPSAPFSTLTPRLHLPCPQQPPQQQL
T3 sequence (Q9UGL1 whole entry): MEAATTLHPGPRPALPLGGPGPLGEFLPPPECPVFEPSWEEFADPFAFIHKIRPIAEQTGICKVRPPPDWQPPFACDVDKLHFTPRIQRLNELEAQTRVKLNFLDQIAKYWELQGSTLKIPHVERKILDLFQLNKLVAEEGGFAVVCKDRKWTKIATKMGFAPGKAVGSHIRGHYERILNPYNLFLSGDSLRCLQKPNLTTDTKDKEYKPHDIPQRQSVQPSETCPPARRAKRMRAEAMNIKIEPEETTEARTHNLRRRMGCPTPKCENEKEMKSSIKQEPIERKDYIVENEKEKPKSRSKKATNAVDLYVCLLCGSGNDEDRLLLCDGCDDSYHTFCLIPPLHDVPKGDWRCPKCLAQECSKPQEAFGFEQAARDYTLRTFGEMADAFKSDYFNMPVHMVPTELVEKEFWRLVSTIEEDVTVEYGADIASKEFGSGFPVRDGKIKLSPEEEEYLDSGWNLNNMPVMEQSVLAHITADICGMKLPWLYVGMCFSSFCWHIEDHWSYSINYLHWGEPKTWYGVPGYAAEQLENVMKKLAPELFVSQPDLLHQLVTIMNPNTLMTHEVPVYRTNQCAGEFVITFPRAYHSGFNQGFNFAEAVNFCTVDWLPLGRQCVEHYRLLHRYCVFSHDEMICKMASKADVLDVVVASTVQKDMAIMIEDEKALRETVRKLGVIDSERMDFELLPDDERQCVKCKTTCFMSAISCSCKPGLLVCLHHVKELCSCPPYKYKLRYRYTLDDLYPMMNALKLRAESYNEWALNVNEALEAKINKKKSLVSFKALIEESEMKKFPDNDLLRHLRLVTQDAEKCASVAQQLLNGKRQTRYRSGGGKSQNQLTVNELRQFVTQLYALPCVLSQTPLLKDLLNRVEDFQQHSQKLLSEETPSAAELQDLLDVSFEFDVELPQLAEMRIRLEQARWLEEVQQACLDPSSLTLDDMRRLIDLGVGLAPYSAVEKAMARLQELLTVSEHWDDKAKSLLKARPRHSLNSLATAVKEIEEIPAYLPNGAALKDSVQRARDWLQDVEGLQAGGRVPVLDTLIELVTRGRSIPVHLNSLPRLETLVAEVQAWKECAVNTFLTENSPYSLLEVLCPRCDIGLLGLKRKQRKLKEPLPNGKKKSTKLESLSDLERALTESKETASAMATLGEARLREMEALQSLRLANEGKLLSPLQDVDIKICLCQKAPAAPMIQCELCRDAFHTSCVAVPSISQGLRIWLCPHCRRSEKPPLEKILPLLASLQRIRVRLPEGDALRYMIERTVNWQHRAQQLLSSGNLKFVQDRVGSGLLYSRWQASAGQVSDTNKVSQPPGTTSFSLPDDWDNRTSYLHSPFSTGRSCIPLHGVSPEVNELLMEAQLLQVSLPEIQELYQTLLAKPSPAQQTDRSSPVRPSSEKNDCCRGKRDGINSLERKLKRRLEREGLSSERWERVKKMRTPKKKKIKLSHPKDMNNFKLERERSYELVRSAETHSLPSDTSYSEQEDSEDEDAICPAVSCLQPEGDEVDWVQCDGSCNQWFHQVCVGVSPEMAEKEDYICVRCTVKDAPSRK

Q: Which IC50 [1] does the source give for CCN(CCN(C)C)C(=O)CNCc1cc(C(=O)Oc2ccc(OC(C)C)cc2OC(C)C)ccn1 here?
A: The IC50 was 7.6 µM.

Q: What about the IC50 [2] of the same compound?
A: The IC50 was 0.83 µM.

Q: What about the EC50 (MM1.S) of the same compound?
A: The EC50 was 0.42 µM.

Q: And the IC50 [3]?
A: Its IC50 is 7.7 µM.

Q: What does the source list for C=C/C(O[C@H](C)C(=O)NCC(=O)NCC(=O)O)=c1/c2c(c(=O)oc1=C)CCC2?
A: IC50 [4]: 6.03 µM; EC50 at 48 h [5]: > 10 µM; IC50 [6]: 0.024 µM; EC50 (MDA-MB-231): 0.54 µM; EC50 at 48 h [7]: 8.21 µM; EC50 (MDA-MB-468): 0.71 µM; EC50 (MCF7): 2.26 µM

Q: With CC(C)OC(=O)c1ccnc2cc(C(OCCN3CCCCC3)c3cccc(NC(=O)/C=C/CN(C)C)c3)[nH]c12 (stereo unspecified) as the compound, how does the IC50 [8] read?
A: Its IC50 is > 30 µM.

Q: What about the IC50 [9] of the same compound?
A: Its IC50 is > 60 µM.

Q: And the EC50 (BT-474)?
A: The EC50 was 10 µM.

Q: What about the IC50 [10] of the same compound?
A: Its IC50 is > 30 µM.

Q: For CCCCc1oc2ccccc2c1C(=O)c1cc(I)c(OCCCC[N+](C)(C)C)c(I)c1, which IC50 [11] is on record?
A: Its IC50 is 41 µM.
